The source of these data is article PMC11668526, “The satiety hormone cholecystokinin gates reproduction in fish by controlling gonadotropin secretion” (eLife, 2024).

The subject of experiment [1] is three types of GnRH receptors that exist in fish. Further details: method as in Zohar and Mylonas, 2001. The following applies: ref Zohar and Mylonas, 2001; cited from earlier work.
Experiment [2] concerns FSH cells in pituitary cell culture. The following applies: ref Lin and Ge, 2009; cited from earlier work. The source says:
GnRH has long been considered the common stimulator of gonadotropin secretion in vertebrates. However, accumulating evidence for GnRH-independent FSH secretion in several mammalian species has questioned the regulatory role of GnRH ([McCann et al., 2001]; [Padmanabhan et al., 1997]; [Culler and Negro-Vilar, 1987]; [Pau et al., 1991]).

The next experiment has as its system FSH secretion. As to the kind of experiment: Ex vivo FSH secretion into perfused medium, ELISA. The following applies: GnRH pulse 300 μl of 30 μg/μl (78.74 µM), n=5, paired t-test. The class given is cell-based, zebrafish. The source says: (§1) The calcium response observed in LH and FSH cells upon GnRH and CCK stimulation indicates a preferential stimulatory effect of the neuropeptides on each cell type. The effect of these neuropeptides on LH and FSH secretion was examined in order to determine the functional outcome of the stimulation. For that, we collected the medium perfused through our ex vivo system (Figure 3A and B) during our calcium imaging assays. The medium was subsequently used to measure LH and FSH secretion using a specific ELISA validated for zebrafish GTHs ([Hollander-Cohen et al., 2018]).
(§2) Adult fish were euthanized using ice-cold water and decapitated. […]
(§3) To measure hormone secretion in response to salmon GnRH analogue (D-Ala6,Pro9-Net)-mammalian GnRH (Bachem Inc, Torrance, CA) or zebrafish CCK [D-Y-[SO3H]-L-G-W-M-D-F, synthesized by GL Biochem] stimulation, the medium was collected through the chamber outlet during the entire imaging session (10 ml per session in total). […] Hormones were measured in the fractions before and after stimulation using ELISA developed for common carp, which was established in the Levavi-Sivan lab using recombinant carp gonadotropins produced in yeast, and had been previously shown to be suitable for zebrafish ([Whitlock et al., 2019]).
For orientation: In an ELISA, binding on a coated surface is turned into a signal by an enzyme label.

Another experiment relates to FSH cells. As to the kind of experiment: Ex vivo calcium imaging (RCaMP2), FSH cells. The class given is cell-based, zebrafish. The following applies: 78.74 µM. The method, then: (§4) Overall, whereas GnRH elicited a response in 95% of LH cells, only 56% of FSH cells responded to the treatment in the same fish (Figure 3E).
(§5) To functionally test the effect of CCK on gonadotroph activity, we applied the peptide (300 μl of 30 μg/ml CCK, 78.74 µM) to our ex vivo preparation and monitored the calcium response of the cells. […] The calcium response in FSH cells was highly synchronized (mean max cross-correlation coefficient, 0.7 ± 0.04; Figure 4B; Figure 4—figure supplement 1B). By contrast, the response of LH cells to CCK application was characterized by low mean of max cross-correlation coefficient values (0.43 ± 0.05; Figure 4B; Figure 4—figure supplement 1B).
Adult fish were euthanized using ice-cold water and decapitated. The head was transferred to ice-cold ACSF (124 mM NaCl, 3 mM KCl, 2 mM CaCl2, 2 mM MgSO4, 1.25 mM NaH2PO4, 26 mM NaHCO3, and 10 mM glucose (pH 7.2)) perfused with 5% CO2 and 95% O2. The heads were further dissected under a stereomicroscope. The ventral side of the head, including the jaw, gills, and mucus, was removed using fine forceps and microscissors, the optic nerves were cut and the eyes were removed. Next, the bone at the base of the skull that covers the pituitary (sella turcica) was removed using fine forceps. The head was placed in a dedicated chamber (Figure 3B) and stabilized with a slice anchor. […]
as §3, with “2019]). […]” for “2019]).”

The subject of a further experiment is LH cells. Briefly: Ex vivo calcium imaging (RCaMP2), LH cells. The class given is cell-based, zebrafish. As for the experimental part: as §4, §5
Adult fish were euthanized using ice-cold water and decapitated. The head was transferred to ice-cold ACSF (124 mM NaCl, 3 mM KCl, 2 mM CaCl2, 2 mM MgSO4, 1.25 mM NaH2PO4, 26 mM NaHCO3, and 10 mM glucose (pH 7.2)) perfused with 5% CO2 and 95% O2. The heads were further dissected under a stereomicroscope. The ventral side of the head, including the jaw, gills, and mucus, was removed using fine forceps and microscissors, the optic nerves were cut and the eyes were removed. Next, the bone at the base of the skull that covers the pituitary (sella turcica) was removed using fine forceps. The head was placed in a dedicated chamber (Figure 3B) and stabilized with a slice anchor. The chamber had one inlet and one outlet, allowing for a constant flow of ACSF at a rate of 1 ml/min, and an additional inlet that was placed in proximity to the tissue for injections of stimuli. The total volume of ACSF in the chamber was 3 ml.
Imaging was performed in an inverted confocal fluorescent microscope (Leica SP8). R-CaMP2 activity was imaged at 4–10 Hz using the resonant scanner. The laser wavelength was 540 nm and the emission band was 630 nm. Images were taken using the 20x objective. Each imaging session lasted 10 min. Before and after each session, the tissue was imaged once for GFP (excitation, 488 nm, and emission, 530 nm) and R-CaMP2 (540 nm and 590 nm) in two separate channels. Images were processed using the Fiji program ([Schindelin et al., 2012]) for resolution using the Gaussian Blur filter and motion correction using the moco plugin ([Dubbs et al., 2016]).
To measure hormone secretion in response to salmon GnRH analogue (D-Ala6,Pro9-Net)-mammalian GnRH (Bachem Inc, Torrance, CA) or zebrafish CCK [D-Y-[SO3H]-L-G-W-M-D-F, synthesized by GL Biochem] stimulation, the medium was collected through the chamber outlet during the entire imaging session (10 ml per session in total). Each pituitary was imaged three times for 10 min: before, during, and after stimulation. The stimulus was applied manually as a pulse of 300 μl of […] (78.74 µM) peptide during the first 30 s of the imaging session. Hormones were measured in the fractions before and after stimulation using ELISA developed for common carp, which was established in the Levavi-Sivan lab using recombinant carp gonadotropins produced in yeast, and had been previously shown to be suitable for zebrafish ([Whitlock et al., 2019]).
Tissue viability was validated by monitoring the morphology and activity of the cells, looking at granulation and calcium changes. This specific preparation was also viable 2 hr after dissection, when all the cells responded to the different stimuli.
A composite of GFP-positive and RCaMP-positive cells was created to distinguish between LH and FSH cells. […]

The subject of experiment [3] is LH expression in the pituitary. As to the kind of experiment: In vivo injection: LH expression in pituitary (real-time PCR). Further details: species or system zebrafish. The following applies: intraperitoneal, 100 ng/g body weight, 2 hr, n=10. The method, then: (§6) Six-month-old zebrafish (five males and five females) were injected intraperitoneally with the following: (1) fish CCK peptide [(D-Y[SO3H]-L-G-W-M-D-F-NH (2), synthesized by GL Biochem] at a concentration of 10 ng/g or 100 ng/g body weight, 2) salmon GnRH analogue (D-Ala6,Pro9-Net)-mammalian GnRH (Bachem Inc, Torrance, CA) at a concentration of 100 ng/g body weight, (3) similar volumes of saline. Two hours post-injection, the fish were sedated using MS-222, bled from the heart as previously described ([Biran et al., 2012]), and decapitated. Pituitaries were dissected under a stereomicroscope and placed in Total RNA Isolation Reagent (Trizol). From each fish, between 15 μl and 20 μl of blood was collected. The blood was centrifuged at 970 × g 30 min and the plasma was separated and stored at −20 °C. LH and FSH expression in the pituitary was measured using real-time PCR (see Figure 5—source data 1 for primer list). RNA extraction, reverse transcription of RNA, and real-time PCR were carried out as previously described ([Biran et al., 2008]). FSH secretion was measured in the plasma using ELISA for common carp, which was established in the Levavi Sivan lab using recombinant carp gonadotropins from in the yeast, and had been previously shown to be suitable for zebrafish ([Hollander-Cohen et al., 2018]).
Background: Real-time PCR tracks product formation cycle by cycle.

The test system of a further experiment is LH secretion. As to the kind of experiment: Ex vivo LH secretion into perfused medium, ELISA. The following applies: GnRH pulse 300 μl of 30 μg/μl, n=5, paired t-test. The experiment is classed as cell-based, zebrafish.
Excerpt: as §1, §2, §3

Another experiment deals with FSH plasma levels. As to the kind of experiment: In vivo injection: FSH plasma levels (ELISA). Further details: species or system zebrafish. The following applies: intraperitoneal, 100 ng/g body weight, 2 hr; n=10; Fig 5C and D. As for the experimental part: as §6

“Also recorded” adds a separate entry of the source.

Regarding (D-Ala6,Pro9-Net)-mammalian GnRH, in experiment [1], the “binding to fish GnRH receptors” value is “effectively binds to the three types of GnRH receptors that exist in fish”. For the same substance, the “FSH cells response to GnRH stimuli in pituitary cell culture” value in experiment [2] is reported as “lack of FSH cells response to GnRH stimuli in pituitary cell culture”. For the same substance, the “FSH secretion response to GnRH” value in the experiment with FSH secretion is given as “not significant from the basal secretion”. Moreover, the “calcium response to GnRH, FSH cells” value in the experiment on FSH cells (GnRH 300 μl, n=10) was “partial increase in follicle-stimulating hormone (FSH) cells; also recorded: inconsistent response of FSH cells”. The “percentage of cells responsive to GnRH stimulus, FSH cells” value in the experiment with FSH cells (GnRH puff 300 μl, coefficient values higher than the 80 percentiles of basal values, same fish, n=10 (3 males, 7 females)) is on record as 56%. Further, in the experiment with FSH cells (GnRH puff 300 μl, percent of fish, n=10), the “fish displaying an increase in cross-correlation values from the basal state, FSH cells” value was 50%. For the same substance, the “calcium transient average half width, LH cells” value in the experiment with LH cells (ex vivo brain-pituitary preparation, GnRH puff 78.74 µM, pH 7.2 ACSF, Fig 3-supplement 2: mean of 20 cell traces per fish, 3 females, 3 males) turned out to be 48.6 s. Further, in the experiment on LH cells (ex vivo, GnRH 78.74 µM, n=10), the “calcium response to GnRH, LH cells” value was “synchronized increase of calcium in all luteinizing hormone (LH) cells; also recorded: strong and slow calcium rise”. The “calcium transient average amplitude, LH cells” value in the experiment on LH cells (ex vivo, GnRH puff 78.74 µM, Fig 3-supplement 2: mean of 20 cell traces per fish, 3 females, 3 males) is reported as 1.99 ∆F/F. Besides, in the experiment on LH cells (ex vivo, GnRH puff 78.74 µM, coefficient values higher than the 80 percentiles of basal values, n=10 (3 males, 7 females), p<0.001 vs FSH cells), the “percentage of cells responsive to GnRH stimulus, LH cells” value worked out at 95%. In addition, the “mean of max cross-correlation coefficient of calcium traces, LH cells” value with LH cells (ex vivo, after GnRH puff 78.74 µM, basal 0.26 ± 0.02, n=10 (3 males, 7 females), mean ± SEM, p<0.0001) was 0.66 ± 0.05. In experiment [3], the “LH expression in the pituitary after GnRH injection” value is listed as “only affected LH expression in the pituitary; also recorded: Expression level increased significantly only in response to GnRH injection”. In the experiment with LH secretion, the “LH secretion response to GnRH” value is “significant rise in LH secretion”. In the experiment on FSH plasma levels, the “FSH expression and secretion response to GnRH injection” value is “did not reach statistical significance”.
